Measured values published in ChEMBL document CHEMBL3580620, “Anti-inflammatory and antitumor phenylpropanoid sucrosides from the seeds of Raphanus sativus” (Bioorg Med Chem Lett, 2014).
≈ marks a conversion by molar mass, not a printed value.

What was measured:
[1] = test system: BV-2; test: Inhibition of LPS-induced nitric oxide production in mouse BV2 cells treated for 30 mins prior to LPS stimulation for 24 hrs by Griess assay; assay type: functional, cell-based
[2] = Cytotoxicity against mouse BV2 cells assessed as inhibition of cell viability up to 50 uM by MTT assay; assay type: cell-based; conditions: bv-2
[3] = test system: A549; test: Cytotoxicity against human A549 cells assessed as cell growth inhibition after 48 hrs by SRB assay; assay type: functional, cell-based; conditions: A549, 48 h
[4] = test system: SK-OV-3; test: Cytotoxicity against human SKOV3 cells assessed as cell growth inhibition after 48 hrs by SRB assay; assay type: functional, cell-based; conditions: SK-OV-3, 48 h
[5] = test system: SK-MEL-2; test: Cytotoxicity against human SK-MEL-2 cells assessed as cell growth inhibition after 48 hrs by SRB assay; assay type: functional, cell-based; conditions: SK-MEL-2, 48 h
[6] = test system: HCT-15; test: Cytotoxicity against human HCT15 cells assessed as cell growth inhibition after 48 hrs by SRB assay; assay type: functional, cell-based; conditions: HCT-15, 48 h
[7] = Antioxidant activity assessed as DPPH radical scavenging activity after 10 mins by spectrophotomteric analysis; assay type: physicochemical
[8] = Cytotoxicity against mouse BV2 cells assessed as inhibition of cell viability by MTT assay; assay type: cell-based, BV-2; conditions: read-out: INH
[9] = test system: RAW264.7; test: Inhibition of LPS-induced nitric oxide production in mouse RAW264.7 cells at 100 uM; assay type: functional

Row | SMILES | IC50 [1] [µM] | IC50 [7] | Activity [2] | IC50 [3] [µM] | IC50 [4] [µM] | IC50 [5] [µM] | IC50 [6] [µM] | cytotoxicity [8] [%] | inhibition at 100 µM [9] [%]
1 | COc1cc(/C=C/C(=O)O[C@H]2[C@H](OC(=O)/C=C/c3cc(OC)c(O)c(OC)c3)[C@@H](CO)O[C@@]2(CO)O[C@H]2O[C@H](COC(=O)/C=C/c3cc(OC)c(O)c(OC)c3)[C@@H](O)[C@H](O)[C@H]2O)ccc1O | 34.8 | 23.05 µg/mL (≈ 24.8 µM) | Non-toxic | 26.9 | 23.8 | 16.7 | 18.9 | – | –
2 | COc1cc(/C=C/C(=O)OC[C@H]2O[C@@](CO)(O[C@H]3O[C@H](COC(=O)/C=C/c4cc(OC)c(O)c(OC)c4)[C@@H](O)[C@H](O)[C@H]3O)[C@@H](OC(=O)/C=C/c3cc(OC)c(O)c(OC)c3)[C@@H]2O)cc(OC)c1O | 21.6 | 44.59 µg/mL (≈ 46.4 µM) | Non-toxic | 20.8 | 6.71 | 9.5 | 12.4 | – | –
3 | COc1cc(/C=C/C(=O)OC[C@H]2O[C@H](O[C@]3(CO)O[C@H](CO)[C@@H](OC(=O)/C=C/c4cc(OC)c(O)c(OC)c4)[C@@H]3OC(=O)/C=C/c3cc(OC)c(O)c(OC)c3)[C@H](O)[C@@H](O)[C@@H]2O)cc(OC)c1O | 48.9 | 27.1 µg/mL (≈ 28.2 µM) | Non-toxic | 25.9 | 19.2 | 18.6 | 14.1 | – | –
4 | COc1cc(/C=C/CO[C@@H]2O[C@H](CO)[C@@H](O)[C@H](O)[C@H]2O)ccc1O | – | – | – | – | – | – | – | – | 50
5 | OC[C@H]1O[C@@H](OC/C=C/c2ccc(O)cc2)[C@H](O)[C@@H](O)[C@@H]1O | – | – | – | – | – | – | – | – | 50
6 | O=C1O[C@H]([C@@H](O)CO)C(O)=C1O [ASCORBIC ACID] | – | 7.63 µg/mL (≈ 43.3 µM) | – | – | – | – | – | – | –
7 | COc1cccc2c1C(=O)c1c(O)c3c(c(O)c1C2=O)C[C@@](O)(C(=O)CO)C[C@@H]3O[C@H]1C[C@H](N)[C@H](O)[C@H](C)O1 [DOXORUBICIN] | – | – | – | – | 0.012 | 0.001 | – | – | –

Further lines, with some results ahead:

Row | IC50 [1] [µM] | IC50 [7] | SMILES | Activity [2] | IC50 [3] [µM] | IC50 [4] [µM] | IC50 [5] [µM] | IC50 [6] [µM] | cytotoxicity [8] [%] | inhibition at 100 µM [9] [%]
8 | 37.1 | 29.63 µg/mL (≈ 39.3 µM) | COc1cc(/C=C/C(=O)OC[C@H]2O[C@H](O[C@]3(CO)O[C@H](CO)[C@@H](O)[C@@H]3OC(=O)/C=C/c3cc(OC)c(O)c(OC)c3)[C@H](O)[C@@H](O)[C@@H]2O)cc(OC)c1O | Non-toxic | 21.1 | 16.7 | 14.2 | 17.2 | – | –
9 | 27 | 54.98 µg/mL (≈ 71.5 µM) | COc1cc(/C=C/C(=O)OC[C@H]2O[C@H](O[C@]3(CO)O[C@H](CO)[C@@H](O)[C@@H]3OC(=O)/C=C/c3cc(OC)c(OC)c(OC)c3)[C@H](O)[C@@H](O)[C@@H]2O)cc(OC)c1O | Non-toxic | 26 | 24.6 | 21.6 | 18.3 | – | –
10 | 45.5 | 35.33 µg/mL (≈ 50.9 µM) | COc1cc(/C=C/C(=O)OC[C@H]2O[C@H](O[C@]3(CO)O[C@H](CO)[C@@H](O)[C@@H]3OC(=O)/C=C/c3ccc(O)c(OC)c3)[C@H](O)[C@@H](O)[C@@H]2O)ccc1O | Non-toxic | > 30 | 20 | 27.9 | 17.8 | – | –
11 | 37.4 | 78.2 µg/mL (≈ 143 µM) | COc1cc(/C=C/C(=O)O[C@H]2[C@H](O)[C@@H](CO)O[C@@]2(CO)O[C@H]2O[C@H](CO)[C@@H](O)[C@H](O)[C@H]2O)cc(OC)c1O | – | 23.9 | 20.5 | 23.9 | 27 | 15 | –
12 | > 200 | Not Active | OC[C@H]1O[C@@](CO)(O[C@H]2O[C@H](CO)[C@@H](O)[C@H](O)[C@H]2O)[C@@H](O)[C@@H]1O [SUCROSE] | Non-toxic | > 30 | > 30 | > 30 | > 30 | – | –
